Test [1] addresses T1, TGF-beta-activated kinase 1 and MAP3K7-binding protein 1 (Homo sapiens) (UniProt Q15750).
T1 sequence (whole entry): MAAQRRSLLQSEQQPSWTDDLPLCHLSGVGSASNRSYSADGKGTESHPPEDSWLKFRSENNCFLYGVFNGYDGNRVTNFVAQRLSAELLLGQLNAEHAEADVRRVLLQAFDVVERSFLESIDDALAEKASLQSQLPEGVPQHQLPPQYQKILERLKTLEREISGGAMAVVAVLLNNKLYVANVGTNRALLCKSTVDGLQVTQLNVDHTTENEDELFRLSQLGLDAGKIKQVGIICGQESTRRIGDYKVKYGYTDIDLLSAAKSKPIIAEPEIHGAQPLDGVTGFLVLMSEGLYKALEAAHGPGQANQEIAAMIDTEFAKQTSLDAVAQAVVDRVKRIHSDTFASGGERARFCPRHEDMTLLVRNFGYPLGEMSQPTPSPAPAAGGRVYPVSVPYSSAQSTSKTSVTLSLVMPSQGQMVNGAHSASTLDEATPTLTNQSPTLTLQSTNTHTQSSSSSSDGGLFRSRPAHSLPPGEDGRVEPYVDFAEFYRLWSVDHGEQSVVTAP
Briefly: Inhibition of MAP3K7-TAB1 (unknown origin) at 5.5 uM by Caliper Mobility Shift Assay.

For test [2], the target named is Epidermal growth factor receptor (Homo sapiens) (UniProt P00533). In words: Inhibition of EGFR (HER1) (unknown origin) at 5.5 uM by Caliper Mobility Shift Assay.
Epidermal growth factor receptor (Homo sapiens), sequence (P00533 whole entry): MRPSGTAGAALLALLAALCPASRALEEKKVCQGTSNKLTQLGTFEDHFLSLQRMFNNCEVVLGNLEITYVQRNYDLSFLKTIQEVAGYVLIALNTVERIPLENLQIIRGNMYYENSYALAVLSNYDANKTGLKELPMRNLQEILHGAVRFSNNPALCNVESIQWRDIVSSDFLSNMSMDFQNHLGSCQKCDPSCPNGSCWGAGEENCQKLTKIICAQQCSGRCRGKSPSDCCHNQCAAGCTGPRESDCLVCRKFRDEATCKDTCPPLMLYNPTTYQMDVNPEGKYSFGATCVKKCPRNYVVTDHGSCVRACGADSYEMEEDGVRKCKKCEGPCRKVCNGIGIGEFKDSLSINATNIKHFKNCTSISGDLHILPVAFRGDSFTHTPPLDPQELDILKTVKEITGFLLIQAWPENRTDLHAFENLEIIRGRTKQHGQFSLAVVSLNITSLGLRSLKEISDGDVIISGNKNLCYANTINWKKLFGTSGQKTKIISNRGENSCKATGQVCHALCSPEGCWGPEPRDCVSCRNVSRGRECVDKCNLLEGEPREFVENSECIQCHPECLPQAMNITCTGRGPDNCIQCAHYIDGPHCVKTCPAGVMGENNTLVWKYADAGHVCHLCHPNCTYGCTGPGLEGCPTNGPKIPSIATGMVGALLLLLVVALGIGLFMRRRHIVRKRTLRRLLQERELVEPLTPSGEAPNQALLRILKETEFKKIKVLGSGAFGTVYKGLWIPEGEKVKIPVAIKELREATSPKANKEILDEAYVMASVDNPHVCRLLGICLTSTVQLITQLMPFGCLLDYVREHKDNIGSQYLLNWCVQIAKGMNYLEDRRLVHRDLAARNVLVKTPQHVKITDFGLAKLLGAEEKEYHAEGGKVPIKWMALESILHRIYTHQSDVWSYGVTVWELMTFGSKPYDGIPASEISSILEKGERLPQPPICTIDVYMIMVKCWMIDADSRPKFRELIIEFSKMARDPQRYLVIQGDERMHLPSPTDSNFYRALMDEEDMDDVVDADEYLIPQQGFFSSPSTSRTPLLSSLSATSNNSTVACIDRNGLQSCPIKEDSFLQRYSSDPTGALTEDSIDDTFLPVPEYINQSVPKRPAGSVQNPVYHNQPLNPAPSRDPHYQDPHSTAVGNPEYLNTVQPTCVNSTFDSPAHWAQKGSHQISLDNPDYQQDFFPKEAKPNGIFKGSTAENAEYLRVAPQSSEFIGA
For test [3], the target named is T2, Mitogen-activated protein kinase 14 (Homo sapiens, UniProt Q16539). In words: Inhibition of p38a (unknown origin) at 5.5 uM by Caliper Mobility Shift Assay.
T2 sequence (Q16539 whole entry): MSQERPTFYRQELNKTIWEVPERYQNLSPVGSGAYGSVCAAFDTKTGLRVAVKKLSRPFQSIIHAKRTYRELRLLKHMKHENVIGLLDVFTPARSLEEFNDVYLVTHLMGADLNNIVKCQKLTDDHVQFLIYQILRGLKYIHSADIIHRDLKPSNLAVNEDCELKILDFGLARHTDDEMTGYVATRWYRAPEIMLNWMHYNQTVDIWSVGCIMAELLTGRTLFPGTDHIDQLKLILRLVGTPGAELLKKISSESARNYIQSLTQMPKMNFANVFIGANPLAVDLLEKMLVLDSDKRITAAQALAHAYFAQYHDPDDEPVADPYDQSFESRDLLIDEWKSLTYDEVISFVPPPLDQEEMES
In test [4] the target is T3, MAP kinase-activated protein kinase 5 (Homo sapiens) (UniProt Q8IW41).
T3 sequence (whole entry): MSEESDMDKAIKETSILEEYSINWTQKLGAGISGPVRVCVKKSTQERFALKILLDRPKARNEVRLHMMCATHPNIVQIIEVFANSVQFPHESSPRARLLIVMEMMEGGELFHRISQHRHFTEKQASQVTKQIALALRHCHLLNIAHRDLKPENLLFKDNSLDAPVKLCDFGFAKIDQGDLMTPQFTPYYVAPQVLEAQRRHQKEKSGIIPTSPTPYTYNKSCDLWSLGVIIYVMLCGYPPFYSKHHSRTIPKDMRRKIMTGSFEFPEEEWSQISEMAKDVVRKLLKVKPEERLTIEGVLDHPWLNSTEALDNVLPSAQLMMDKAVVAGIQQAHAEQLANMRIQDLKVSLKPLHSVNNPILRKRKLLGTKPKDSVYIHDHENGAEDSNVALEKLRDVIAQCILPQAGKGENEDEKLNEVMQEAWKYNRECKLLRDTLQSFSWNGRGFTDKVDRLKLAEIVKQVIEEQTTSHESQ
Briefly: Inhibition of MAPKAPK5 (MK5) (unknown origin) at 5.5 uM by Caliper Mobility Shift Assay.

The target in test [5] is Fibroblast growth factor receptor 2 (Homo sapiens) (UniProt P21802). Briefly: Inhibition of FGFR2 (unknown origin) at 5.5 uM by Caliper Mobility Shift Assay.
Fibroblast growth factor receptor 2 (Homo sapiens), sequence (P21802 22-821 limits assumed): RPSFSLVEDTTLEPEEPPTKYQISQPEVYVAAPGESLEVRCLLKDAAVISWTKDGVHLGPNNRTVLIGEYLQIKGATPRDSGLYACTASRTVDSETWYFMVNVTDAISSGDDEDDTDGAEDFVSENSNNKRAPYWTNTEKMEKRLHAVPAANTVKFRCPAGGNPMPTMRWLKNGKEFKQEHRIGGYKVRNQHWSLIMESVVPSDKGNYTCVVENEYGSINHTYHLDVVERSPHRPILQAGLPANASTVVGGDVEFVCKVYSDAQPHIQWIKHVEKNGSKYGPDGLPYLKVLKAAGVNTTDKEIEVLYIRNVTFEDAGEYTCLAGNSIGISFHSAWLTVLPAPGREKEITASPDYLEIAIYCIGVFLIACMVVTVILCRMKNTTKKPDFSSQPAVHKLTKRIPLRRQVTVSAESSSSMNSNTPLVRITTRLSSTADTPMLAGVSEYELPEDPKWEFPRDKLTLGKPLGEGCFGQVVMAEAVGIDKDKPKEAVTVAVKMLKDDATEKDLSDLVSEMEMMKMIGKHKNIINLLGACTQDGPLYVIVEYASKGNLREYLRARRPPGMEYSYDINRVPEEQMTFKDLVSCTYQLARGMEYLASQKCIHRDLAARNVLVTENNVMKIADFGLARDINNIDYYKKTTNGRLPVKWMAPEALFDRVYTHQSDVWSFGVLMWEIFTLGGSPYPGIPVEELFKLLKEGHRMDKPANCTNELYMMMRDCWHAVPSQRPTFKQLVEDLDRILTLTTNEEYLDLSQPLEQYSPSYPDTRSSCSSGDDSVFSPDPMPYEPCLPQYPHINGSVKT
The species entered for the next test is Homo sapiens. In words: Inhibition of PRKACA(PKA) (unknown origin) at 5.5 uM by Caliper Mobility Shift Assay.
For test [6], the target named is T2, Mitogen-activated protein kinase 14. Briefly: Inhibition of p38alpha (unknown origin) assessed as phosphorylation of ATF-2 by ELISA.
Test [7] has as its target ALK tyrosine kinase receptor (Homo sapiens) (UniProt Q9UM73). In words: Inhibition of ALK (unknown origin) at 5.5 uM by Caliper Mobility Shift Assay.
The target in test [8] is TRAF2 and NCK-interacting protein kinase (Homo sapiens) (UniProt Q9UKE5). Briefly: Inhibition of TNIK (unknown origin) at 5.5 uM by Caliper Mobility Shift Assay.
For test [9], the target named is Cyclin-dependent kinase 2 (Homo sapiens) (UniProt P24941). Briefly: Inhibition of CDK2 (unknown origin) at 5.5 uM by Caliper Mobility Shift Assay.
For test [10], the target named is Cyclin-dependent kinase 4/cyclin D1 (Homo sapiens) (UniProt P11802+P24385). Briefly: Inhibition of CDK4D1 (unknown origin) at 5.5 uM by Caliper Mobility Shift Assay. It is filed as protein-complex assay.
The target of test [11] is Receptor-type tyrosine-protein kinase FLT3 (Homo sapiens) (UniProt P36888). In words: Inhibition of FLT3 (unknown origin) at 5.5 uM by Caliper Mobility Shift Assay.
Receptor-type tyrosine-protein kinase FLT3 (Homo sapiens), sequence (P36888 whole entry): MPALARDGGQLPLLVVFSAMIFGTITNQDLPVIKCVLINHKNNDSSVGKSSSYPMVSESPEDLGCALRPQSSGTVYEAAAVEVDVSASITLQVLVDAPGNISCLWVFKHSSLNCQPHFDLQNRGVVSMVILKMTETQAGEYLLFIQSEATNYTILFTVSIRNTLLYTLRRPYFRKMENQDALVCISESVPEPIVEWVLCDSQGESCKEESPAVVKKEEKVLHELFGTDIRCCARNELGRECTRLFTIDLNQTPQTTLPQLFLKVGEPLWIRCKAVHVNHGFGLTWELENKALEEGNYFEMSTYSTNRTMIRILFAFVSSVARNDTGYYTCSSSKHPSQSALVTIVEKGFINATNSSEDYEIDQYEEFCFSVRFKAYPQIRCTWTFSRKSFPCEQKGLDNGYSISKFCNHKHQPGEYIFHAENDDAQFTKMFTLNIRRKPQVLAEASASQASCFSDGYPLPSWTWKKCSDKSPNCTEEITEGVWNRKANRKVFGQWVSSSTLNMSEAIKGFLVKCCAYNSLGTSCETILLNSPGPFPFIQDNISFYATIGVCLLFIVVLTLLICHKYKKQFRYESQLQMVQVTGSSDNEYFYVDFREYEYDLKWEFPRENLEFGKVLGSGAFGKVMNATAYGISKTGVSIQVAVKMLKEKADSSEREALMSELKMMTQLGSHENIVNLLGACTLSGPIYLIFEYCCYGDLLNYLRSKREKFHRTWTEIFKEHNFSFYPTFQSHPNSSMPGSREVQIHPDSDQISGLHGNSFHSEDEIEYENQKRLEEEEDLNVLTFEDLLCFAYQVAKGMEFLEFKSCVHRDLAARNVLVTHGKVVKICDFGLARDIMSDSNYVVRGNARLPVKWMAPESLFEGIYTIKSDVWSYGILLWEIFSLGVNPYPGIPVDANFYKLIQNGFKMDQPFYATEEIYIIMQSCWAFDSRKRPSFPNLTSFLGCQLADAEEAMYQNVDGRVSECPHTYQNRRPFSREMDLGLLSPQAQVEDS
Test [12] deals with Mitogen-activated protein kinase 10 (Homo sapiens, UniProt P53779). Briefly: Inhibition of MAPK10 (JNK3) (unknown origin) at 5.5 uM by Caliper Mobility Shift Assay.
Mitogen-activated protein kinase 10, sequence (P53779 whole entry): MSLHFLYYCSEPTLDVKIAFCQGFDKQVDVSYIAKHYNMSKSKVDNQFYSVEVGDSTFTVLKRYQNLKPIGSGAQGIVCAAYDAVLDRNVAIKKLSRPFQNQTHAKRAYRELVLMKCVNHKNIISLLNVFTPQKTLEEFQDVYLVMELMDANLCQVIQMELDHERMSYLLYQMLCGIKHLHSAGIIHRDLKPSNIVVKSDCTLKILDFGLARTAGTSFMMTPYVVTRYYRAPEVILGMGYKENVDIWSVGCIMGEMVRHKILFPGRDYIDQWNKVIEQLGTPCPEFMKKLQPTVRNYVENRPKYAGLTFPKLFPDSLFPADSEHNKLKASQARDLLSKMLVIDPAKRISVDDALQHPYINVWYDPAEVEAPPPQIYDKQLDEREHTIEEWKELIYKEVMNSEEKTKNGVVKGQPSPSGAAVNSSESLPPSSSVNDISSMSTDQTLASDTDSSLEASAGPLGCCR
Test [13] concerns the target Protein kinase C alpha type (Homo sapiens) (UniProt P17252). Briefly: Inhibition of PRKCA (unknown origin) at 5.5 uM by Caliper Mobility Shift Assay.
Test [14] has as its target Fibroblast growth factor receptor 3 (Homo sapiens) (UniProt P22607). Briefly: Inhibition of FGFR3 (unknown origin) at 5.5 uM by Caliper Mobility Shift Assay.
Test [15] concerns the target Tyrosine-protein kinase JAK2 (Homo sapiens) (UniProt O60674). In words: Inhibition of JAK2 (unknown origin) at 5.5 uM by Caliper Mobility Shift Assay.

Bounds are passed on as bounds.

As to `CC(=O)Nc1cc(-c2c(-c3ccc(F)cc3)nc(Sc3cccc(I)n3)n2C2CCCCC2)ccn1`, the inhibition (in test [1]; in test [2]; in test [3]; in [4]; in [5]; in the test filed under Homo sapiens) was less than 50% in each case. Moreover, the inhibition in [7], in test [8], in test [9], in [10], in test [11] and in test [12] was less than 50% each time. In addition, the inhibition in test [13], in test [14] and in test [15] was less than 50% in each case. Besides, the IC50 in [6] is 356 nM.
In the case of `CC(=O)Nc1cc(-c2c(-c3ccc(F)cc3)nc(S/C=C\C(=O)O)n2C2CCCCC2)ccn1`, the inhibition (in [1]; in test [2]; in test [3]; in [4]; in test [5]; in the test filed under Homo sapiens) was less than 50% in each case. For the same compound, the inhibition in test [7], in test [8], in test [9], in [10], in test [11] and in test [12] was less than 50% in each case. The inhibition in [13], in test [14] and in test [15] was less than 50% each time. For the same compound, in [6], the half-maximal inhibitory concentration (IC50) stood at 165 nM.
For `CC(=O)Nc1cc(-c2c(-c3ccc(F)cc3)nc(S/C=C\C(=O)O)n2C2CC2)ccn1`, the inhibition (in test [1]; in [2]; in test [3]; in test [4]; in test [5]; in the test listed under Homo sapiens) was less than 50% in each case. Further, the inhibition in test [7], in [8], in [9], in [10], in test [11] and in test [12] was less than 50% in each case. For the same compound, the inhibition in [13], in test [14] and in [15] was less than 50% each time. In addition, the 50% inhibitory concentration (IC50) in test [6] was determined as 123 nM.
In the case of `CC(=O)Nc1cc(-c2c(-c3ccc(F)cc3)nc(S/C=C\C(=O)O)n2CC2CCCO2)ccn1` (racemic), the inhibition (in [1]; in test [2]; in [3]; in test [4]; in test [5]; in the test listed under Homo sapiens) was less than 50% throughout. Besides, the inhibition in [7], in test [8], in [9], in test [10], in [11] and in [12] was less than 50% in each case. Besides, the inhibition in [13], in test [14] and in test [15] was less than 50% throughout. In addition, the IC50 in test [6] is 223 nM.
`COC(Cn1c(SC2CCC(C(=O)O)CC2O)nc(-c2ccc(F)cc2)c1-c1ccnc(NC(C)=O)c1)OC` (stereo not given): the inhibition (in test [1]; in [2]; in test [3]; in [4]; in test [5]; in the test filed under Homo sapiens) was less than 50% throughout. For the same compound, the inhibition in test [7], in test [8], in test [9], in [10], in test [11] and in [12] was less than 50% throughout. Also, the inhibition in [13], in test [14] and in test [15] was less than 50% each time. Moreover, the IC50 in test [6] stood at 135 nM.

In general, inhibition refers to the share of the control response that was lost under treatment. For orientation: IC50 means the concentration that inhibits the measured activity by half.

(Values after ChEMBL document CHEMBL3393036, “Tetra-substituted pyridinylimidazoles as dual inhibitors of p38α mitogen-activated protein kinase and c-Jun N-terminal kinase 3 for potential treatment of neurodegenerative diseases” (J Med Chem, 2015).)
